Results on 1 compound are retold here after PMC4160187 (2014).

Common to all, as to assay: UV-vis Soret titration (A404)
The test system of assay [1] is r(G4C2)4 (RNA, G4) GGGGCCGGGGCCGGGGCCGGGGC
Conditions: 20 mM K+; 40 mM HEPES pH 8.0, 1% DMF, 0.05% Triton X-100, 20°C; heme 0.5 µM; text also ~3 µM.

Assay [2] deals with d(G4C2)4 (DNA, G4) GGGGCCGGGGCCGGGGCCGGGGC
Particulars: 20 mM K+; 40 mM HEPES pH 8.0, 1% DMF, 0.05% Triton X-100, 20°C; heme 0.5 µM; weaker than r(G4C2)4.

Assay [3] relates to CatG4 (DNA, G4) TGGGTAGGGCGGGTTGGGAAA
Conditions: 20 mM K+; 40 mM HEPES pH 8.0, 1% DMF, 0.05% Triton X-100, 20°C; heme 0.5 µM.

Assay [4] deals with r(C4G2)4 (RNA, other) GGCCCCGGCCCCGGCCCCGGCCCC
Conditions: 20 mM K+; 40 mM HEPES pH 8.0, 1% DMF, 0.05% Triton X-100, 20°C; heme 0.5 µM; up to 20 µM RNA.

Consider `C=CC1=C(C)C2=Cc3c(C=C)c(C)c4[n]3[Fe]([Cl])[n]3c(c(C)c(CCC(=O)O)c3=CC3=NC(=C4)C(C)=C3CCC(=O)O)=CC1=N2`, for which the KD – broadly, a measure of binding affinity in units of concentration – in assay [1] was determined as 3100 nM. In addition, the results for the binding entry in assay [2] and in assay [4] were “yes” and “no”, respectively. The Kd – broadly, the free concentration of one partner at which half of the binding sites on the other are occupied at equilibrium, for simple one-to-one binding – in assay [3] was under 500 nM.
